PubChem BioAssay AID1752 (Sanford-Burnham Center for Chemical Genomics, 2009)
Several values for one entry are separate records, joined by “and”; a condition that tells them apart may be missing. Equal values may be shown once. Activity calls are given as the source filed them. How the calls were made is not given here.

System: PPC-1 cells, TRAIL-induced apoptosis potentiation
Assay: TRAIL sensitization of PPC-1 cells, potency – analog series, SAR follow-up (AID 1752)

Structure (SMILES) | IC50
CSc1nc(-c2ccccc2)nc(C(C)C)n1 | > 10 µM (inactive)
CCSc1nc(-c2ccccc2)cc(=O)[nH]1 | > 10 µM (inactive)
CSc1nc(-c2ccccc2)nc(-c2ccccc2)n1 | > 10 µM (inactive)
CC(Sc1nc(-c2ccccc2)cc(C(F)(F)F)n1)C(=O)N1CCCC1 (stereo not drawn) | > 10 µM (inactive)
CCSc1cc(N2CCCC2)nc(-c2ccc(Cl)cc2)n1 | > 10 µM (inactive)
COc1cc(-c2ccccc2)[nH]c(=S)n1 | > 10 µM (inactive)
CSc1nc(-c2ccc(C)cc2)nc(C(Cl)Cl)n1 | 0.372 µM and 0.602 µM
CSc1nc(-c2ccccc2)nc(-c2ccccc2OC(C)=O)n1 | > 10 µM (inactive)
